# Structures can show the parent of a compound that is named as a salt.
# Experiment: collision cross section in nitrogen (drift tube, single-field); higher = larger gas-phase ion size
# [1] = ion type: [M+H], ion source: APCI, ion mode: Positive
# [2] = ion type: [M+H], ion source: ESI, ion mode: Positive
# [3] = ion type: [M+Na], ion source: ESI, ion mode: Positive
# [4] = ion type: [M-H], ion source: ESI, ion mode: Negative
# [5] = ion type: [M+], ion source: APCI, ion mode: Positive
# 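Further: chemical standards at 10 µM analysed by drift tube IMS-QTOF MS in about 3.95 torr nitrogen, mean of duplicate injections differing ≤1%, mass error below 10 ppm.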
structure (smiles),measurement,setting,value
CSc1nc(NC2CC2)nc(NC(C)(C)C)n1 [Cybutryne],collision cross section in nitrogen,[1],162.8 Å²
same,collision cross section in nitrogen,[2],162.4 Å²
"c1cnc2c(c1)ccc1cccnc12 [1,10-Phenanthroline hydrochloride hydrate]",collision cross section in nitrogen,[1],131.8 Å²
same,collision cross section in nitrogen,[2],131.6 Å²
same,collision cross section in nitrogen,[3],145.7 Å²
CCCN(CCC)c1c([N+](=O)[O-])cc(S(C)(=O)=O)cc1[N+](=O)[O-] [Nitralin],collision cross section in nitrogen,[4],177 Å²
CC(c1cc(C(C)(C)C)cc(C(C)(C)C)c1O)c1cc(C(C)(C)C)cc(C(C)(C)C)c1O [Tetrabutyl ethylidenebisphenol],collision cross section in nitrogen,[4],224.4 Å²
CCC(C)(CC)C(=O)O [2-Ethyl-2-methylbutyric acid],collision cross section in nitrogen,[4],130.5 Å²
"O=c1[nH]c2ccc(Cl)cc2o1 [6-Chloro-2,3-dihydrobenzoxazol-2-one]",collision cross section in nitrogen,[4],125.6 Å²
CC(C)(C(=O)c1cccnc1)c1cccnc1 [Metyrapone],collision cross section in nitrogen,[2],156.2 Å²
CCOC(=O)C1CC(=O)C(=C(O)C2CC2)C(=O)C1 (configuration not stated) [Trinexapac-ethyl],collision cross section in nitrogen,[3],167.5 Å²
COC(=O)c1ccc(I)cc1S(=O)(=O)NC(=O)Nc1nc(C)nc(OC)n1 [Iodosulfuron methyl ester sodium salt],collision cross section in nitrogen,[1],194.5 Å²
same,collision cross section in nitrogen,[2],194.2 Å²
same,collision cross section in nitrogen,[3],195.8 Å²
same,collision cross section in nitrogen,[4],196.1 Å²
CC(C)(Oc1ccc(C2CC2(Cl)Cl)cc1)C(=O)O (configuration not stated) [Ciprofibrate],collision cross section in nitrogen,[4],171.9 Å²
CCOc1cc(C(C)(C)C)ccc1C1COC(c2c(F)cccc2F)=N1 (configuration not stated) [Etoxazole],collision cross section in nitrogen,[1],186.3 Å²
same,collision cross section in nitrogen,[2],186.5 Å²
same,collision cross section in nitrogen,[3],196 Å²
same,collision cross section in nitrogen,[5],186.5 Å²
COc1ccc(-c2coc3cc(O)cc(O)c3c2=O)cc1 [Biochanin A],collision cross section in nitrogen,[1],164.6 Å²
same,collision cross section in nitrogen,[2],164.1 Å²
same,collision cross section in nitrogen,[3],175 Å²
same,collision cross section in nitrogen,[4],168 Å²
CCCSP(=O)(OCC)SCCC [Ethoprop],collision cross section in nitrogen,[1],151.3 Å²
same,collision cross section in nitrogen,[2],151.5 Å²
same,collision cross section in nitrogen,[3],169.5 Å²
CC(C)CP(=S)(S)CC(C)C [Sodium diisobutyldithiophosphinate],collision cross section in nitrogen,[4],146.5 Å²
"Oc1cc(Cl)ccc1Cl [2,5-Dichlorophenol]",collision cross section in nitrogen,[4],123.3 Å²
CSc1ccc(C(=O)C(C)(C)N2CCOCC2)cc1 [2-Methyl-4'-(methylthio)-2-morpholinopropiophenone],collision cross section in nitrogen,[1],166.4 Å²
same,collision cross section in nitrogen,[2],166.7 Å²
"COc1cc(C(C)(C)C)c(O)c(C(C)(C)C)c1 [2,6-Di-tert-butyl-4-methoxyphenol]",collision cross section in nitrogen,[5],157.2 Å²
same,collision cross section in nitrogen,[4],160.4 Å²
CC(=O)OCCN(CCOC(C)=O)c1ccc(N=Nc2ccc([N+](=O)[O-])cc2C#N)cc1 [Disperse Red 82],collision cross section in nitrogen,[1],213.1 Å²
same,collision cross section in nitrogen,[2],213.3 Å²
same,collision cross section in nitrogen,[3],201.3 Å²
"CCC(C)(CCCC(C)C)OC(C)=O (configuration not stated) [3,7-Dimethyloctan-3-yl acetate]",collision cross section in nitrogen,[4],154.8 Å²
CSc1nc(NC(C)C)nc(NC(C)C)n1 [Prometryn],collision cross section in nitrogen,[1],160.9 Å²
same,collision cross section in nitrogen,[2],161 Å²
CN(C)CCOC(C)(c1ccccc1)c1ccccn1 (configuration not stated) [Doxylamine succinate],collision cross section in nitrogen,[1],162 Å²
CC(C)OP(=O)(CP(=O)(OC(C)C)OC(C)C)OC(C)C [Tetraisopropyl methylenediphosphonate],collision cross section in nitrogen,[1],174.6 Å²
same,collision cross section in nitrogen,[3],185 Å²
same,collision cross section in nitrogen,[4],177.7 Å²
CN(C)CCC=C1c2ccccc2CCc2ccccc21 [Amitriptyline hydrochloride],collision cross section in nitrogen,[1],166.8 Å²
same,collision cross section in nitrogen,[2],167.5 Å²
same,collision cross section in nitrogen,[3],175.7 Å²
CN1[C@@H]2C[C@@H](OC(=O)[C@H](CO)c3ccccc3)C[C@H]1[C@@H]1O[C@@H]12 [Scopolamine hydrochloride],collision cross section in nitrogen,[1],172.2 Å²
same,collision cross section in nitrogen,[2],171.7 Å²
CCCCCc1ccc(N)cc1 [4-Pentylaniline],collision cross section in nitrogen,[2],156.5 Å²
"Cc1ccc(NC=O)c(C)c1 [N-(2,4-Dimethylphenyl)formamide]",collision cross section in nitrogen,[4],133.8 Å²
COP(=O)(OC)C(O)C(Cl)(Cl)Cl (configuration not stated) [Trichlorfon],collision cross section in nitrogen,[3],151.7 Å²
"Cc1c(O)cccc1O [2-Methyl-1,3-benzenediol]",collision cross section in nitrogen,[4],123.6 Å²
O=S(=O)(c1ccc2c(c1)CCCN2)N1CCC[C@@H]2CCCC[C@H]21,collision cross section in nitrogen,[1],179.5 Å²
same,collision cross section in nitrogen,[2],178.5 Å²
same,collision cross section in nitrogen,[3],195.9 Å²
same,collision cross section in nitrogen,[4],179.6 Å²
"Cc1ccc(N)cc1N [2,4-Diaminotoluene]",collision cross section in nitrogen,[2],122.3 Å²
O=[N+]([O-])O [Magnesium dinitrate hexahydrate],collision cross section in nitrogen,[4],104.1 Å²
COC(=O)C(C)Oc1ccc(Oc2ncc(C(F)(F)F)cc2Cl)cc1 (configuration not stated) [Haloxyfop-methyl],collision cross section in nitrogen,[2],184.4 Å²
same,collision cross section in nitrogen,[3],185.6 Å²
O=c1[nH]c2ccccc2n1C1CCN(CCCC(c2ccc(F)cc2)c2ccc(F)cc2)CC1 [Pimozide],collision cross section in nitrogen,[1],211.9 Å²
same,collision cross section in nitrogen,[2],211.8 Å²
same,collision cross section in nitrogen,[3],217.6 Å²
same,collision cross section in nitrogen,[4],215.8 Å²
"C=CCOCC(CC)(CO)COCC=C [2,2-Bis[(prop-2-en-1-yloxy)methyl]butan-1-ol]",collision cross section in nitrogen,[3],150 Å²
C[C@]12C=CC(=O)C=C1CC[C@@H]1[C@@H]2[C@@H](O)C[C@@]2(C)[C@H]1CC[C@]2(O)C(=O)CO [Prednisolone],collision cross section in nitrogen,[1],186.4 Å²
same,collision cross section in nitrogen,[3],210.8 Å²
O=C(Nc1ccccc1)N(Cc1ccc(Cl)cc1)C1CCCC1 [Pencycuron],collision cross section in nitrogen,[1],180.7 Å²
same,collision cross section in nitrogen,[2],180.5 Å²
same,collision cross section in nitrogen,[3],192.8 Å²
same,collision cross section in nitrogen,[4],185.7 Å²
COc1ccc(N)c(C)c1 [4-Methoxy-2-methylaniline],collision cross section in nitrogen,[1],124.8 Å²
same,collision cross section in nitrogen,[2],135.7 Å²
COC(=O)Nc1nc2cc(Sc3ccccc3)ccc2[nH]1 [Fenbendazole],collision cross section in nitrogen,[1],175 Å²
same,collision cross section in nitrogen,[2],174.6 Å²
same,collision cross section in nitrogen,[4],174.9 Å²
"Cc1cc(O)c(Cl)c(C)c1Cl [2,4-Dichloro-3,5-dimethylphenol]",collision cross section in nitrogen,[4],135.4 Å²
"O=C(c1ccc(O)cc1O)c1ccc(O)cc1O [2,2',4,4'-Tetrahydroxybenzophenone]",collision cross section in nitrogen,[4],152.3 Å²
NC(=O)c1ccc(N)nc1 [6-aminopyridine-3-carboxamide],collision cross section in nitrogen,[1],130.2 Å²
same,collision cross section in nitrogen,[2],131.3 Å²
same,collision cross section in nitrogen,[4],124.5 Å²
CCCCCCCCc1ccc(S(=O)(=O)O)cc1 [Sodium 4-octylbenzenesulfonate],collision cross section in nitrogen,[4],173.9 Å²
Cc1ncsc1CCO [Thiamine thiozole],collision cross section in nitrogen,[1],126.1 Å²
same,collision cross section in nitrogen,[2],126.5 Å²
"Nc1cc(S(=O)(=O)O)ccc1S(=O)(=O)O [2-Aminobenzene-1,4-disulfonic acid]",collision cross section in nitrogen,[4],147.3 Å²
"O=c1nn[nH]c2ccccc12 [1,2,3-Benzotriazin-4(1H)-one]",collision cross section in nitrogen,[4],126.4 Å²
CC(Oc1ccc(Oc2ncc(C(F)(F)F)cc2Cl)cc1)C(=O)O (configuration not stated) [Haloxyfop],collision cross section in nitrogen,[2],180 Å²
same,collision cross section in nitrogen,[4],190 Å²
CCCOC(=O)c1ccc(O)cc1 [Propylparaben],collision cross section in nitrogen,[4],142.9 Å²
O=P1(NCCCl)OCCCN1CCCl (configuration not stated) [Ifosfamide],collision cross section in nitrogen,[1],148.1 Å²
same,collision cross section in nitrogen,[2],148.8 Å²
same,collision cross section in nitrogen,[3],158.1 Å²
Cn1cnc([N+](=O)[O-])c1Sc1ncnc2nc[nH]c12 [Azathioprine],collision cross section in nitrogen,[1],158.6 Å²
same,collision cross section in nitrogen,[3],172.4 Å²
same,collision cross section in nitrogen,[4],155.5 Å²
F[B-](F)(F)F [Sodium tetrafluoroborate],collision cross section in nitrogen,"ion source: ESI, ion mode: Negative, ion type: [M]- (permanent anion)",101 Å²
CCCCN1C(=O)[C@@H]([C@H](O)C2CCCCC2)NC(=O)C12CCN(Cc1ccc(Oc3ccc(C(=O)O)cc3)cc1)CC2 [Aplaviroc hydrochloride],collision cross section in nitrogen,[2],260.4 Å²
same,collision cross section in nitrogen,[3],238.6 Å²
same,collision cross section in nitrogen,[4],235.7 Å²
O=C(Oc1cccc(O)c1)c1ccccc1 [Resorcinol monobenzoate],collision cross section in nitrogen,[4],152.9 Å²
CCCSc1ccc2[nH]c(NC(=O)OC)nc2c1 [Albendazole],collision cross section in nitrogen,[1],166.9 Å²
same,collision cross section in nitrogen,[2],166 Å²
same,collision cross section in nitrogen,[5],160.4 Å²
CNC(=O)Oc1cccc(N=CN(C)C)c1 [Formetanate hydrochloride],collision cross section in nitrogen,[2],156 Å²
OC[C@H]1O[C@H](O[C@]2(CCl)O[C@H](CCl)[C@@H](O)[C@@H]2O)[C@H](O)[C@@H](O)[C@H]1Cl [Sucralose],collision cross section in nitrogen,[3],179.7 Å²
same,collision cross section in nitrogen,[4],174.5 Å²
Cc1cc(C2CC2)nc(Nc2ccccc2)n1 [Cyprodinil],collision cross section in nitrogen,[1],153.1 Å²
same,collision cross section in nitrogen,[2],153.4 Å²
O=C1Nc2ccc(Cl)cc2C(c2ccccc2)=NC1O (configuration not stated) [Oxazepam],collision cross section in nitrogen,[1],163.5 Å²
same,collision cross section in nitrogen,[2],163.7 Å²
same,collision cross section in nitrogen,[3],180 Å²
same,collision cross section in nitrogen,[4],162.7 Å²
CCCOP(=O)(OCCC)OCCC [Tripropyl phosphate],collision cross section in nitrogen,[3],168.5 Å²
CCCCCCCCOC(=O)c1ccc(C(=O)OCCCCCCCC)c(C(=O)OCCCCCCCC)c1 [Tri-n-octyl trimellitate],collision cross section in nitrogen,[2],259 Å²
same,collision cross section in nitrogen,[3],263.7 Å²
Cc1ccc(OP(=O)(Oc2ccc(C)cc2C)Oc2ccc(C)cc2C)c(C)c1 [Trixylyl phosphate],collision cross section in nitrogen,[1],204.2 Å²
same,collision cross section in nitrogen,[2],203.1 Å²
same,collision cross section in nitrogen,[3],212.6 Å²
CCCCCCCCOC(=O)c1ccccc1C(=O)O [Octyl hydrogen phthalate],collision cross section in nitrogen,[3],181.5 Å²
same,collision cross section in nitrogen,[4],168 Å²
COc1ccc(NC(C)=O)cc1N [3'-Amino-4'-methoxyacetanilide],collision cross section in nitrogen,[1],137.3 Å²
same,collision cross section in nitrogen,[2],137.2 Å²
